Measured values as given in patent publication US11208412B2 (DAEGU-GYEONGBUK MEDICAL INNOVATION FOUNDATION, priority 2017, dated 2021).

Key:
Assay in all cases: Kinase selectivity, DiscoverX scanMAX Kinase assay panel (% control)
Assay type in all cases: binding
[1] = target: T1, kinases of the scanMAX Kinase assay panel (Homo sapiens, UniProt P42338); conditions: PIK3CB; 1 uM
T1 construct: purchased DiscoverX Co. (contract measurement) scanMAX Kinase assay panel
Procedure, shortened: (§1)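 Single-point screen, 1 uM cpd in DMSO. % ctrl = (cpd − pos ctrl)/(neg ctrl − pos ctrl)×100; pos ctrl = 0%, DMSO neg ctrl = 100%. Hit cutoff <35%.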

[2] = target: T2, kinases of the scanMAX Kinase assay panel (Homo sapiens, UniProt P45985); conditions: MEK4; 1 uM
T2 construct: purchased DiscoverX Co. (contract measurement) scanMAX Kinase assay panel
T2 sequence (P45985 1-399): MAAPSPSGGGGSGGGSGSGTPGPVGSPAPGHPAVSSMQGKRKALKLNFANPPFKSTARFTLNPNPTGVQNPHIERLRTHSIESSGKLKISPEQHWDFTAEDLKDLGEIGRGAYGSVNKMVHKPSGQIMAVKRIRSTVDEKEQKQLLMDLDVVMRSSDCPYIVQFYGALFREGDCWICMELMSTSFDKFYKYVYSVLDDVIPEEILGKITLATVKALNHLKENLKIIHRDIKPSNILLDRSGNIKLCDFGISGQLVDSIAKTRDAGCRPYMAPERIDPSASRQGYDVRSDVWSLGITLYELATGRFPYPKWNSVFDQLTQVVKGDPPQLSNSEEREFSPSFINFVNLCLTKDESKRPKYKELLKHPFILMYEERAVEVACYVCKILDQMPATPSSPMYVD
Procedure, shortened: as §1

[3] = target: T3, kinases of the scanMAX Kinase assay panel (Homo sapiens, UniProt P10721, T670I/V559D); conditions: KIT(V559D, T670I); 1 uM
T3 construct: purchased DiscoverX Co. (contract measurement) scanMAX Kinase assay panel
T3 sequence (P10721 26-976 V559D/T670I): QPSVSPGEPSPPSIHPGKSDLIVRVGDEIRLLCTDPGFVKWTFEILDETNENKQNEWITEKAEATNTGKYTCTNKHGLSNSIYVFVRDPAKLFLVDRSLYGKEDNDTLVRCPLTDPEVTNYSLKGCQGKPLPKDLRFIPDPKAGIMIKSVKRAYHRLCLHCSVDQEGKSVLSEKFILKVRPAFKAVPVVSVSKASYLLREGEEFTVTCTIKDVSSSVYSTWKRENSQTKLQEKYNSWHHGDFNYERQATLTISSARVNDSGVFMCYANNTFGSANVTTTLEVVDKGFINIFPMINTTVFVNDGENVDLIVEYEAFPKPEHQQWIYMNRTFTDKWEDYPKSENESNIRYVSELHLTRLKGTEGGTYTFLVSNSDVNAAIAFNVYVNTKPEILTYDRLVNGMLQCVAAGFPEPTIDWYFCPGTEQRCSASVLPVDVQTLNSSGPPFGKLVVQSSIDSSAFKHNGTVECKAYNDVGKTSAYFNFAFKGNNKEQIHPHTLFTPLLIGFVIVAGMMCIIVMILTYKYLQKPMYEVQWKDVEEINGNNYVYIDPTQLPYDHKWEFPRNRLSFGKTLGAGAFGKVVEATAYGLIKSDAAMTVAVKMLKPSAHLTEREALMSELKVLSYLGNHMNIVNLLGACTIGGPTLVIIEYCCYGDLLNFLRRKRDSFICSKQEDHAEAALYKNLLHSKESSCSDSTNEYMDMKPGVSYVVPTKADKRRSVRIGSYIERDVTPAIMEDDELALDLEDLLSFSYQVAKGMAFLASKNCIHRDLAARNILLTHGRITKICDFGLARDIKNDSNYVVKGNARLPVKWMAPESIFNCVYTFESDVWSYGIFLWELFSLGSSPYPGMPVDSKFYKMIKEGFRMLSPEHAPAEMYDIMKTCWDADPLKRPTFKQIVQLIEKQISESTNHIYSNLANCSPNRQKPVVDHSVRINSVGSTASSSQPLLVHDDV
Procedure, shortened: as §1

[4] = target: T4, kinases of the scanMAX Kinase assay panel (Homo sapiens, UniProt Q9Y5S2); conditions: MRCKB; 1 uM
T4 construct: purchased DiscoverX Co. (contract measurement) scanMAX Kinase assay panel
T4 sequence (Q9Y5S2 whole entry): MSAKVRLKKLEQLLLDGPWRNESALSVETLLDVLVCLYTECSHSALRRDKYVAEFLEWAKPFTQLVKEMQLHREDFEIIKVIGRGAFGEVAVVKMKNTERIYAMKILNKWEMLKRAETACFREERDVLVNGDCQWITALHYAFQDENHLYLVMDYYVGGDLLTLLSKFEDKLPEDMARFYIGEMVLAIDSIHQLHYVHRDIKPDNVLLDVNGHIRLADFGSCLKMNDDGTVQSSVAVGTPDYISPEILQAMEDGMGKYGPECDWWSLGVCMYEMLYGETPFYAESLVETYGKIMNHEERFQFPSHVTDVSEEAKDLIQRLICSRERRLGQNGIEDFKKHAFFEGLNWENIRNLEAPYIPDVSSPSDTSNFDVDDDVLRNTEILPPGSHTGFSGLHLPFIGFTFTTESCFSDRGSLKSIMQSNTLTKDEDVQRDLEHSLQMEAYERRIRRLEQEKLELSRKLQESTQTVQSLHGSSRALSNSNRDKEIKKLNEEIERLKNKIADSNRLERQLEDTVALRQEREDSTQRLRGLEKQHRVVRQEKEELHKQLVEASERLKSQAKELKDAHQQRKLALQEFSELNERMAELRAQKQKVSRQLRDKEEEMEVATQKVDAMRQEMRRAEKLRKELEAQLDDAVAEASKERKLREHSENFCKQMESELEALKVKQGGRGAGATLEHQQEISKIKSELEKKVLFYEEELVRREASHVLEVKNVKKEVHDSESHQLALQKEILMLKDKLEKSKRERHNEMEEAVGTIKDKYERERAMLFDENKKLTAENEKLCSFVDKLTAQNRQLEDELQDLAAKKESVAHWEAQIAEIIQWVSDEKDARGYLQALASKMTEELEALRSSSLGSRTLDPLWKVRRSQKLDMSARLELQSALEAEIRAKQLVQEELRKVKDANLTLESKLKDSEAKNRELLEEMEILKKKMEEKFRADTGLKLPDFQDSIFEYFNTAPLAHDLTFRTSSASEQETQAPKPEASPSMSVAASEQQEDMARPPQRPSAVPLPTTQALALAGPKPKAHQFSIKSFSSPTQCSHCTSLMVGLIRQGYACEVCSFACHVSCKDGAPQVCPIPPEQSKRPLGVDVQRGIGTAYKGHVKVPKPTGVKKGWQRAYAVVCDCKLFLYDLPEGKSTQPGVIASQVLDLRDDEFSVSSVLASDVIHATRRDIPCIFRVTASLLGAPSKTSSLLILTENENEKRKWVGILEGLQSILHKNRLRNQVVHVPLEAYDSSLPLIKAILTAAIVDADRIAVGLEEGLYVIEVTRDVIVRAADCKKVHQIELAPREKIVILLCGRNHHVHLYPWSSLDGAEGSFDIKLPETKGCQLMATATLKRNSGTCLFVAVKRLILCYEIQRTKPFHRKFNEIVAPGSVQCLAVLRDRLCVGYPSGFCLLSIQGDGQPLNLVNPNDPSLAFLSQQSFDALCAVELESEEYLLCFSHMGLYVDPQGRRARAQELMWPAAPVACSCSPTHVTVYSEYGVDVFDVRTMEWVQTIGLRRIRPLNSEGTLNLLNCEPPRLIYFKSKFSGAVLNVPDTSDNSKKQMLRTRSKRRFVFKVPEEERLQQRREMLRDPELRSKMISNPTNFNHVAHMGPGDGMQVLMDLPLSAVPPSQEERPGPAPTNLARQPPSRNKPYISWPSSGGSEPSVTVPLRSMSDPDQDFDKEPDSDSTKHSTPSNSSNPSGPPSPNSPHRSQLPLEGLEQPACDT
Procedure, shortened: as §1

[5] = target: T5, kinases of the scanMAX Kinase assay panel (Homo sapiens, UniProt O00750); conditions: PIK3C2B; 1 uM
T5 construct: purchased DiscoverX Co. (contract measurement) scanMAX Kinase assay panel
Procedure, shortened: as §1

[6] = target: T6, kinases of the scanMAX Kinase assay panel (Homo sapiens, UniProt P00519, M351T); conditions: ABL1(M351T)-phosphorylated; 1 uM
T6 construct: purchased DiscoverX Co. (contract measurement) scanMAX Kinase assay panel
Procedure, shortened: as §1

[7] = target: T7, kinases of the scanMAX Kinase assay panel (Homo sapiens, UniProt Q8TD08); conditions: ERK8; 1 uM
T7 construct: purchased DiscoverX Co. (contract measurement) scanMAX Kinase assay panel
T7 sequence (Q8TD08 1-544): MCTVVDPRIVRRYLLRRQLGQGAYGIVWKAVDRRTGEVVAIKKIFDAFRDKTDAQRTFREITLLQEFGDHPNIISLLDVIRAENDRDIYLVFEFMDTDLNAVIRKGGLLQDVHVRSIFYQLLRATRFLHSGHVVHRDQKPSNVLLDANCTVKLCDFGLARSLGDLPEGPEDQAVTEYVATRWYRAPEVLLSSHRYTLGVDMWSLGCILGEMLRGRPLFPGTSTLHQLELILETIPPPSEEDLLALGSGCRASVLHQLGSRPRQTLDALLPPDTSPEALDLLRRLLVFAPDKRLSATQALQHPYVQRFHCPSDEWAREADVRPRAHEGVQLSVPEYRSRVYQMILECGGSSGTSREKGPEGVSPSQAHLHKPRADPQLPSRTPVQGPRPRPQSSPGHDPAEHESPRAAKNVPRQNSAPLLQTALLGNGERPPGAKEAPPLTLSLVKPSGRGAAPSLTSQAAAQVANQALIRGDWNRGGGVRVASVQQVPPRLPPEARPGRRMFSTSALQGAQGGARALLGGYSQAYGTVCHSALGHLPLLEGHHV
Procedure, shortened: as §1

[8] = target: T8, kinases of the scanMAX Kinase assay panel (Homo sapiens, UniProt Q16620); conditions: kinase TRKB; 1 uM in DMSO
T8 construct: purchased DiscoverX Co. (contract measurement) scanMAX Kinase assay panel
T8 sequence (Q16620 32-822): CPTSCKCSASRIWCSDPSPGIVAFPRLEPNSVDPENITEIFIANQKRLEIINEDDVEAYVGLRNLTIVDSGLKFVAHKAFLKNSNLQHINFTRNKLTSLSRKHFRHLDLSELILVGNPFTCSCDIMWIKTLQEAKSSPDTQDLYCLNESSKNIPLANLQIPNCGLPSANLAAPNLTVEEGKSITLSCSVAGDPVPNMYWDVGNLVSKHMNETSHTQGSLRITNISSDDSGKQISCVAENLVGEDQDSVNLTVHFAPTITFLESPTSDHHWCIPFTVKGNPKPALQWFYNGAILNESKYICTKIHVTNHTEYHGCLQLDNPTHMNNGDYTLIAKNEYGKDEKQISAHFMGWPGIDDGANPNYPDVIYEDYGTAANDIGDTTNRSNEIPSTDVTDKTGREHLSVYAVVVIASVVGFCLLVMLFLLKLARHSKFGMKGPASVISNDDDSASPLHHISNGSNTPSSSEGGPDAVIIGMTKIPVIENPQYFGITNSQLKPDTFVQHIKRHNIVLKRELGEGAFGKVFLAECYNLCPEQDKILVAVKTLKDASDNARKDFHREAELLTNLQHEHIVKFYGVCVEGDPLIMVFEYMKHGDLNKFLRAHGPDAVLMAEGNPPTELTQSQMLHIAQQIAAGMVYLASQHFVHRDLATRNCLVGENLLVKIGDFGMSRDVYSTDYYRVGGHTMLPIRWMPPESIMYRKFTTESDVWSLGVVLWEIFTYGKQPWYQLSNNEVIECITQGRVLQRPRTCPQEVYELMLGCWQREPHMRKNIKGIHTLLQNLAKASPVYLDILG
Procedure, shortened: as §1

[9] = target: T9, kinases of the scanMAX Kinase assay panel (Homo sapiens, UniProt P45984); conditions: JNK2; 1 uM
T9 construct: purchased DiscoverX Co. (contract measurement) scanMAX Kinase assay panel
T9 sequence (P45984 whole entry): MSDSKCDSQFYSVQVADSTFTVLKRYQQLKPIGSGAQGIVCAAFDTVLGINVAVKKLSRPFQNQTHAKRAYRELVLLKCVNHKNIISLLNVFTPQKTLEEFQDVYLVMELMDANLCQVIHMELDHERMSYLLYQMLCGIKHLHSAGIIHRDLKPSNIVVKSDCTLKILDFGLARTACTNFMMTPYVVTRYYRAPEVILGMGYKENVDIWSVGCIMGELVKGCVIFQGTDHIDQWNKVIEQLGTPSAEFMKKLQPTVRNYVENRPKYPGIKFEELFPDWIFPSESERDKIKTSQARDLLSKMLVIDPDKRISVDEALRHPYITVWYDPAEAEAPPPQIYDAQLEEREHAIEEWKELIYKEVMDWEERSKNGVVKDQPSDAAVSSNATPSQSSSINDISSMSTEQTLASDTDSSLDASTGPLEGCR
Procedure, shortened: as §1

[10] = target: T10, kinases of the scanMAX Kinase assay panel (Homo sapiens, UniProt Q15139); conditions: PRKD1; 1 uM
T10 construct: purchased DiscoverX Co. (contract measurement) scanMAX Kinase assay panel
T10 sequence (Q15139 1-912): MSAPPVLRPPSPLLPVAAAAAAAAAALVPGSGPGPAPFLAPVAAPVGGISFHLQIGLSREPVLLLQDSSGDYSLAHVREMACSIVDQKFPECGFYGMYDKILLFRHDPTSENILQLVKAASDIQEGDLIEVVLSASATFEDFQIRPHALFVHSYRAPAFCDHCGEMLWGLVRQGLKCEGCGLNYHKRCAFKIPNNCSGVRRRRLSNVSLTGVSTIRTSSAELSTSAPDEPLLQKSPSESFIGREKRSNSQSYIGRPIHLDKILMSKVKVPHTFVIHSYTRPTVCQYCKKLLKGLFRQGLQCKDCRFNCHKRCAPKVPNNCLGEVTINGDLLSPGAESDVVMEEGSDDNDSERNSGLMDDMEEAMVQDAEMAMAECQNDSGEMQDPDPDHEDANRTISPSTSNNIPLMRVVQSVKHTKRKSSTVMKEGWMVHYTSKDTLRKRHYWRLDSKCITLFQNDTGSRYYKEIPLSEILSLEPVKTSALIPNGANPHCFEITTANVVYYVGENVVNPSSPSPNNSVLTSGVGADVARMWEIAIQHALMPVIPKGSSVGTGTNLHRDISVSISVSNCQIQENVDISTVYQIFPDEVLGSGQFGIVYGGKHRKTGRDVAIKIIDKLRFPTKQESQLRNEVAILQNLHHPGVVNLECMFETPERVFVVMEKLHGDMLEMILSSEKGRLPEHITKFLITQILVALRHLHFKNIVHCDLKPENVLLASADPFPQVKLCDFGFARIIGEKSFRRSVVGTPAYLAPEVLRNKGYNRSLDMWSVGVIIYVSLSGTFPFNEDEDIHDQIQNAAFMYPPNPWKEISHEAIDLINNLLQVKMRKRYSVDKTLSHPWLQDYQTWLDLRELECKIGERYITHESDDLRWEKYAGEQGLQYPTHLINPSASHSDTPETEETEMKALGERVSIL
Procedure, shortened: as §1

[11] = target: T11, kinases of the scanMAX Kinase assay panel (Homo sapiens, UniProt Q6P2M8); conditions: CAMK1B; 1 uM
T11 construct: purchased DiscoverX Co. (contract measurement) scanMAX Kinase assay panel
Procedure, shortened: as §1

T1 sequence (P42338 whole entry): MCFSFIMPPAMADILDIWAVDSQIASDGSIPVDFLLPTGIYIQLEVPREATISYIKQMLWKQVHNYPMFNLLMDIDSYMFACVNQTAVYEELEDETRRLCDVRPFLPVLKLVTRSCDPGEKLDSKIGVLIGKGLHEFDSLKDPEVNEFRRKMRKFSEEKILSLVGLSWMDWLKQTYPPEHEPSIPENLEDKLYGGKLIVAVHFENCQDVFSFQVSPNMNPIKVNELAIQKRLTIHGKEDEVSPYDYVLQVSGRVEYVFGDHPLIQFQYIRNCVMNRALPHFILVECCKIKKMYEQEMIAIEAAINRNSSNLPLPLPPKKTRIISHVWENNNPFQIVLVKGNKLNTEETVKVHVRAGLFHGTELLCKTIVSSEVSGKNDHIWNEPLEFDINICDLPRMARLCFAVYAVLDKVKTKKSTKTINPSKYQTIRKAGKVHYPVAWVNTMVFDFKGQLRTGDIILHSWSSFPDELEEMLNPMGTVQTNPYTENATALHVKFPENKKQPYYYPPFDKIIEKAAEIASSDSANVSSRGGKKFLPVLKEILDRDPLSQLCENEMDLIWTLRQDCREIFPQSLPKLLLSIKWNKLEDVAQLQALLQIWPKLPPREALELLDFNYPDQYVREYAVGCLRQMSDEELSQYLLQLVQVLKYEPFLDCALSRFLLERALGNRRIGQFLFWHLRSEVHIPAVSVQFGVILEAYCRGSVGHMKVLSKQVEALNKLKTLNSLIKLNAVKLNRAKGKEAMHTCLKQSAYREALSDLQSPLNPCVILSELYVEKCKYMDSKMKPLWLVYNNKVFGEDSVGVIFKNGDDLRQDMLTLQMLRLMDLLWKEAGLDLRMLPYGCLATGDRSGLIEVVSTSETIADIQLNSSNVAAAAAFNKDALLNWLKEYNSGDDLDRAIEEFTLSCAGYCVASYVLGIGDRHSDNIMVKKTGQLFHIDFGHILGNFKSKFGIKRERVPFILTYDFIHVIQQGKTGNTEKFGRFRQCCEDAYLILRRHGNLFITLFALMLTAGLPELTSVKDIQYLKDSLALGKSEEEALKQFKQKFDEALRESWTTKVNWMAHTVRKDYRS

Row | Compound | remaining binding at 1 µM [1] [%] | remaining binding at 1 µM [2] [%] | remaining binding at 1 µM [3] [%] | remaining binding at 1 µM [4] [%] | remaining binding at 1 µM [5] [%] | remaining binding at 1 µM [6] [%] | remaining binding at 1 µM [7] [%] | remaining binding at 1 µM [8] [%] | remaining binding at 1 µM [9] [%] | remaining binding at 1 µM [10] [%] | remaining binding at 1 µM [11] [%]
1 | CCNc1nc(Nc2ccc(C(=O)N3CCC(N4CCOCC4)CC3)cc2OC)nc2[nH]cc(C(F)(F)F)c12 [Example 104, (4-((4-(ethylamino)-5-(trifluoromethyl)-7H-pyrrolo[2,3-d]pyrimidine-2-yl)amino)-3-methoxyphenyl)(4-morpholinopiperidine-1-yl)methanone] | 92 | 16 | 87 | 100 | 75 | 100 | 100 | 100 | 23 | 11 | 21
2 | CNc1nc(Nc2ccc(C(=O)N3CCOCC3)cc2OC)nc2[nH]cc(C#N)c12 [Example 1, 2-((2-methoxy-4-(morpholine-4-carbonyl)phenyl)amino)-4-(methylamino)-7H-pyrrolo[2,3-d]pyrimidine-5-carbonitrile] | 96 | 0 | 73 | 100 | 89 | 62 | 100 | 61 | 0.1 | 5.7 | 45
3 | CC1(Nc2nc(Nc3cnn([C@H]4CCN(C5COC5)C[C@@H]4F)c3Cl)nc3[nH]cc(C#N)c23)CC1 [Example 52, 2-((5-chloro-1-((3S,4S)-3-fluoro-1-(oxetane-3-yl)piperidine-4-yl)-1H-pyrazole-4-yl)amino)((1-methylcyclopropyl)amino)-7H-pyrrolo[2,3-d]pyrimidine-5-carbonitrile] | 100 | 0 | 0.4 | 89 | 91 | 2.6 | 62 | 7.5 | 0 | 12 | 64
